This assay concerns the target T1, 5-hydroxytryptamine receptor 2C (Homo sapiens, UniProt P28335).
T1 sequence (P28335 whole entry): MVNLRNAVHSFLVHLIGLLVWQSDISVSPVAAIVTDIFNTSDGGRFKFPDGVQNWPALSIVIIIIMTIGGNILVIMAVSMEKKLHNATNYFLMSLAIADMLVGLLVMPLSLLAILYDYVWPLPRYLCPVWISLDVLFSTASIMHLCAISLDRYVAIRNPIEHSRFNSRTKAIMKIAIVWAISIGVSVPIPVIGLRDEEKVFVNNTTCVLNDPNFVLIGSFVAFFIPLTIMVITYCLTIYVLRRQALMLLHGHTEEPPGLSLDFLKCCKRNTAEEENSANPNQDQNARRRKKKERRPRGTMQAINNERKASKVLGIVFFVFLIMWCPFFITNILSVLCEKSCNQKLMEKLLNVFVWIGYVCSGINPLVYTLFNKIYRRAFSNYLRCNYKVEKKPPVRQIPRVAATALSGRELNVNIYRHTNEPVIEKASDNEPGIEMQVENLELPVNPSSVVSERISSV
The experiment in a line: Agonist activity at human 5HT2C receptor expressed in HEK293 cells assessed as calcium flux measured every sec for 3 mins by FLIPR assay. A general note: Calcium flux is commonly read through the fluorescence of an indicator in the cells.

Molecules are shown by their SMILES. pEC50: −log10 of the molar value.

What is called pEC50 is −log10 of the EC50, conventionally taken in molar units. Consider `NC[C@H]1C[C@@H]1c1ccccc1OCC1CC1`, for which the negative logarithm of the EC50 (pEC50) is 6.92.

The values are drawn from BindingDB's records for doi:10.1021/ml200206z (2011).
